Key:
Type in all cases: cell-based
[1] = system: Escherichia coli (10536 strain); assay: Assessment of antimicrobial efficacy and synergy: 15 seconds contact suspension kill test (Example 1); conditions: for MBC (minimum biocidal concentration): lowest concentration giving complete kill of E. coli, 15 seconds contact, component alone
[2] = system: Escherichia coli (E. coli - ATCC #10536); assay: High resolution MBC microtiter plate synergy assay in phosphate buffer containing 35% dipropylene glycol (Example 2); conditions: for MBC of component alone (MBCA, MBCB): complete kill in 15 seconds, phosphate buffer with 35% DPG, E. coli 10536; for ΣFBC: component alone
Experimental: The materials were sourced in the same way as for Example 1. Synergy tests were conducted using standard microtiter plate assays with phosphate buffer containing 35% dipropylene glycol (DPG). […] The MBC plate was inoculated one column at a time with the test microorganism. An aliquot of the inoculated well was transferred at 15 seconds to a plate containing a neutralizing agent (D/E Neutralizing Broth), mixed and held for 5 minutes before being transferred to a growth plate containing trypticase soy broth (TSB). The TSB plate was incubated at 37° C. and read for the presence/absence of growth at 24 hours. […] This microorganism is representative of natural contaminants in many consumer and industrial applications.

[3] = system: Escherichia coli (E. coli - ATCC #10536); assay: Automated assessment of efficacy in surfactant base, OD readout after 15 seconds exposure (Example 3)
Experimental: In these examples, the efficacy of combinations of thymol and p-menthene alcohols were tested in a surfactant cleansing formulation comprising 2.85% sodium cocoyl glycinate and 1.85% sodium lauroamphoacetate. This corresponds to a 50% in use dilution with water of a typical neat formulation containing 5.7% cocoyl glycinate and 3.7% % sodium lauroamphoacetate during hand washing. Solutions were prepared such that the concentrations of the surfactant components and test actives were 1.1 times the final desired concentration in order to allow for dilution with the bacterial inoculum in the test. The solutions were manually adjusted to pH 10.0 by dropwise addition of sodium hydroxide solution, as measured with a pH meter at ambient temperature. […]
The efficacy of the combinations of the present invention was determined against the same bacterium as in Example 1, Escherichia coli (E. coli—ATCC #10536), at a concentration of approximately 1×10^8 bacteria per mL.
Tests were conducted using standard microtiter plate assays using an automated liquid handling system. […] After 5 minutes in the DIE quench, the optical density (OD) was measured for each plate in turn at two specific wavelengths (450 nm and 590 nm). […] Delta OD values were calculated by subtracting […] at time=16 hours. […]

SMILES | MBC (minimum biocidal concentration) [1] [% w/v] | MBC of p-menthene alcohol ([1]; value used to calculate FBC, for piperitols a lower boundary) | MBC of component alone (MBCA, MBCB) [2] [weight %] | ΣFBC [2] | Cb (end-point of second component in the mixture) ([2]; with Ca 0.08 of thymol, ratio A to B 1 to 2.5) [weight %] | Cb (end-point of second component in the mixture) ([2]; with Ca 0.2 of thymol, ratio A to B 1 to 0.13) [weight %] | Cb (end-point of second component in the mixture) ([2]; with Ca 0.2 of thymol, ratio A to B 1 to 0.25) [weight %] | Cb (end-point of second component in the mixture) ([2]; with Ca 0.2 of thymol, ratio A to B 1 to 0.38) [weight %] | Cb (end-point of second component in the mixture) ([2]; with Ca 0.2 of thymol, ratio A to B 1 to 0.5) [weight %] | 15 second bactericidal efficacy in combination with thymol (in words) ([3]; in combination with thymol at concentrations lower than their MBC, same surfactant formulation, all 4 or 6 replicates) | thymol concentration required for complete bacterial kill in combination ([1]; in combination with […](w/v) of 2-(4-methylcyclohex-3-enyl)-propan-1-ol, 4-fold reduction) [%] | MBC of thymol ([1]; value used to calculate FBC) | Ca (end-point of thymol in the mixture) ([2]; with Cb 0.025 of 2-(4-methylcyclohex-3-enyl)-propan-1-ol, ratio A to B 1 to 0.13) [weight %] | Ca (end-point of thymol in the mixture) ([2]; with Cb 0.05, ratio A to B 1 to 0.25) [weight %] | Ca (end-point of thymol in the mixture) ([2]; with Cb 0.075, ratio A to B 1 to 0.38) [weight %] | Ca (end-point of thymol in the mixture) ([2]; with Cb 0.1, ratio A to B 1 to 0.5) [weight %] | Ca (end-point of thymol in the mixture) ([2]; with Cb 0.2, ratio A to B 1 to 2.5) [weight %] | MBC (minimum biocidal concentration) ([3]; in 2.85% sodium cocoyl glycinate + 1.85% sodium lauroamphoacetate solution at pH 10) [% w/v]
CC1=CCC(C(C)(C)O)CC1 (stereo not drawn) [alpha-terpineol, reference compound] | 0.4 |  |  |  |  |  |  |  |  |  |  |  |  |  |  |  |  | 
CC1=CCC(C(C)CO)CC1 (stereo not drawn) [2-(4-methylcyclohex-3-enyl)-propan-1-ol, 2-(4-methylcyclohex-3-enyl)propan-1-ol] | 0.15 | 0.15 % (w/v) | 0.3 | 1.00 | 0.2 | 0.025 | 0.05 | 0.075 | 0.1 | complete kill |  |  |  |  |  |  |  | 
Cc1ccc(C(C)C)c(O)c1 [thymol, 2-isopropyl-5-methylphenol, reference compound] |  |  | 0.3 | 1.00 |  |  |  |  |  |  | 0.0125 | 0.025 % (w/v) | 0.2 | 0.2 | 0.2 | 0.2 | 0.08 | >0.2

— patent US20150050220A1, “ANTIMICROBIAL COMPOSITION” (Rohm and Haas Company, priority 2011, published 2015)
